The source of these data is PMC8177813 (Journal of pharmaceutical sciences, 2020).

Data set [1] concerns the target T1, human OAT3 (Homo sapiens, UniProt Q8TCC7).
T1 sequence (Q8TCC7 1-542): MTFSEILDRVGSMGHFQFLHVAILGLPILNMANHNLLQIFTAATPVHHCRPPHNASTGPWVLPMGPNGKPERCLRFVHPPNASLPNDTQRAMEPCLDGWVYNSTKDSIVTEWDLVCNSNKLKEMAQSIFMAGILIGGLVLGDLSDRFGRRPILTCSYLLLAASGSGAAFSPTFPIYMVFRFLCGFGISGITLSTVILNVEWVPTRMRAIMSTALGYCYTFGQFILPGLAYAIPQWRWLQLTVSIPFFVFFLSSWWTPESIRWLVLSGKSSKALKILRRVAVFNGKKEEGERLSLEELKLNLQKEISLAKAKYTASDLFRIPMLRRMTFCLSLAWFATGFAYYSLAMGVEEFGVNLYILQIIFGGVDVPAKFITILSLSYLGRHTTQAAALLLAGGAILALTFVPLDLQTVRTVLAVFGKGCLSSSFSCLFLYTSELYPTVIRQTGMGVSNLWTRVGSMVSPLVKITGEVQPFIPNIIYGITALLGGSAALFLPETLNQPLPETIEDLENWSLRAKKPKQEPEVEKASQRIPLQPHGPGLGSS

The target in the next data set is T2, human OAT1 (Homo sapiens, UniProt Q4U2R8).
T2 sequence (Q4U2R8 1-563): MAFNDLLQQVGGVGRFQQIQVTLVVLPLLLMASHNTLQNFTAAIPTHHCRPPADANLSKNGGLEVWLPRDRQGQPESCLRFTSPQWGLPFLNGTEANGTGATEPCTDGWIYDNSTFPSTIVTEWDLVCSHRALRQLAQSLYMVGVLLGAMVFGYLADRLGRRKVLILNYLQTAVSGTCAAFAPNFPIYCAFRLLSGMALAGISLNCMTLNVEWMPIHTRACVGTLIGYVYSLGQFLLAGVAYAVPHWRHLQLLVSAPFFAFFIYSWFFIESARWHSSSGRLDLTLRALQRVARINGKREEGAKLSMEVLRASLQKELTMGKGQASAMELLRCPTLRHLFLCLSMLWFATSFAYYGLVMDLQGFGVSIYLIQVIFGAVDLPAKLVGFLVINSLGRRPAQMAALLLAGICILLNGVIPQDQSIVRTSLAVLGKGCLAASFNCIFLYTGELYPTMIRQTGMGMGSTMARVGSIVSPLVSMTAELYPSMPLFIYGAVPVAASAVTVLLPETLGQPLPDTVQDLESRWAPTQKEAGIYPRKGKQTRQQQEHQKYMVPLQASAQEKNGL
Put plainly: Inhibition of OAT1-mediated 6-carboxyfluorescein.

For data set [2], the target named is T1, human OAT3. Put plainly: Inhibition of OAT3-mediated 6-carboxyfluorescein.
For data set [3] the following is noted: cited from earlier work.
For data set [4] the following is noted: cited from earlier work; for Cmax / Unbound Fraction: plasma.
Data set [5] has as its target T1, human OAT3. The experiment in a line: cell-based.
The conditions of data set [6]: cited from earlier work. The source holds these as a separate data set.
Where [7] appears, read: ref https://doi.org/10.1002/j.1552–4604.1993.tb04699.x.
Where [8] appears, read: ref https://doi.org/10.1124/jpet.110.165852.

Usually Ki stands for the dissociation constant of the complex between target and ligand, obtained from inhibition or displacement. For orientation: Cmax means the maximum level reached in the sampled fluid or tissue.

Structures can show the parent of a compound that is named as a salt. Where two headings read alike, the source gives them in different places. Marks after values point to notes of the source that are not given here.

Take `CCCN(CCC)S(=O)(=O)c1ccc(C(=O)O[C@@H]2O[C@H](C(=O)O)[C@@H](O)[C@H](O)[C@H]2O)cc1`: the affinity at human OAT3 [1], expressed as Ki, was 19.9 µM.
Turning to 4-Hydroxy flurbiprofen, the results for the Ki at human OAT1 (read-out: Ki (OAT1)) and at human OAT3 [2] (read-out: Ki (OAT3)) were 1.6 µM and 1390 nM, respectively.
On to `COc1ccc(Cl)cc1C(=O)NCCc1ccc(S(=O)(=O)NC(=O)N[C@H]2CCC[C@@H](O)C2)cc1` (relative stereo) [3-cis-hydroxycyclohexyl glyburide], for which the Ki on human OAT1 (read-out: Ki (OAT1), HEK293 cells stably transfected with OAT1, 2 μM 6CF, 3 min, 37 °C, […]) came out at 10.1 µM; on human OAT3 [2] (read-out: Ki (OAT3)) it was 810 nM.
As to `O=C(O)Cc1ccccc1Nc1c(Cl)cc(O)cc1Cl` [4-Hydroxy diclofenac], the values for the Ki on human OAT1 (read-out: Ki (OAT1)) and at human OAT3 [2] (read-out: Ki (OAT3)) were 0.48 µM and 2030 nM, respectively.
`O=c1n(CCCN2CCN(c3ccc(O)c(Cl)c3)CC2)nc2ccccn12` [4-hydroxy-trazodone]: the figures for the Ki on human OAT1 (read-out: Ki (OAT1)) and on human OAT3 [2] (read-out: Ki (OAT3)) were > 200 µM and 16900 nM, respectively.
As for `CN1C(C(=O)Nc2ncc(C(=O)O)s2)=C(O)c2ccccc2S1(=O)=O` [5-Carboxy-meloxicam], the values for the Ki on human OAT1 (read-out: Ki (OAT1)) and at human OAT3 [2] (read-out: Ki (OAT3)) were 19.6 µM and 700 nM, respectively.
The like results for `CN(CCOc1ccc(CC2SC(=O)NC2=O)cc1)c1ccc(O[C@@H]2O[C@H](C(=O)O)[C@@H](O)[C@H](O)[C@H]2O)cn1` (stereo partly drawn) [5-Hydroxy Rosiglitazone β-D-Glucuronide] were, in that order, > 200 µM and > 200000 nM.
Regarding `CN(CCOc1ccc(CC2SC(=O)NC2=O)cc1)c1ccc(OS(=O)(=O)O)cn1` (stereo not drawn) [5-OH-rosiglitazone sulfate], the Ki on human OAT1 (read-out: Ki (OAT1)) came to 33.7 µM; on human OAT3 [2] (read-out: Ki (OAT3)) it was 1310 nM.
In the case of `CC(=O)C[C@@H](c1ccccc1)c1c(O)c2ccc(O)cc2oc1=O` [(S)-7-hydroxy warfarin], the results for the Ki at human OAT1 (read-out: Ki (OAT1)) and at human OAT3 [2] (read-out: Ki (OAT3)) were 14.5 µM and 1930 nM, respectively.
For `C[C@H](C(=O)O)c1ccc2cc(O)ccc2c1` [(S)-O-desmethyl naproxen] the same measures were 4.7 µM and 3440 nM.
The like results for `COc1ccc2cc([C@H](C)C(=O)O[C@@H]3O[C@H](C(=O)O)[C@@H](O)[C@H](O)[C@H]3O)ccc2c1` [(S)-naproxen acyl-β-D-glucuronide] were, in that order, > 200 µM and 5430 nM.
Regarding `C[C@]12CC[C@H](O)CC1=CC[C@@H]1[C@@H]2CC[C@]2(C)C(c3cccnc3)=CC[C@@H]12` [Abiraterone, reference compound], the results for the Ki at human OAT1 and on human OAT3 [5] were > 20 µM and > 20000 nM, respectively. Also, the “basic pKa” value in data set [3] was 5.19. Further, the Cmax in data set [4] (ref https://doi.org/10.1002/cpdd.132) is 0.37 µM.
For `NS(=O)(=O)c1ccc(-n2nc(C(F)(F)F)cc2-c2ccc(C(=O)O)cc2)cc1` [Celecoxib carboxylic acid], the Ki on human OAT1 (read-out: Ki (OAT1)) was found to be 262 µM; on human OAT3 [2] (read-out: Ki (OAT3)), 8430 nM. For the same molecule, the “acidic pKa” value in data set [3] is listed as 3.98.
For `Cc1ccc(-c2cc(C(F)(F)F)nn2-c2ccc(S(N)(=O)=O)cc2)cc1` [Celecoxib, reference compound], the inhibition constant Ki at human OAT1 is > 200 µM; at human OAT3 [5], > 200000 nM.
Molecule `C[C@]12CC[C@@H]3c4ccc(OS(=O)(=O)O)cc4CC[C@H]3[C@@H]1CCC2=O` [Estrone sulfate, reference compound] gave a Ki on human OAT3 [1] of 1 µM.
`CC(C(=O)O)c1ccc(-c2ccccc2)c(F)c1` (stereo not drawn) [Flurbiprofen, reference compound]: the results for the Ki on human OAT1 and on human OAT3 [5] were 1.91 µM and 1800 nM, respectively.
The like results for `COc1ccc(Cl)cc1C(=O)NCCc1ccc(S(=O)(=O)NC(=O)NC2CCCCC2)cc1` [Glyburide, reference compound] were, in that order, 5.7 µM and 210 nM.
For `CC(O)c1ccc(CCOc2ccc(CC3SC(=O)NC3=O)cc2)nc1` (stereo not drawn) [Hydroxy pioglitazone] the same measures were 27.6 µM and 1370 nM.
As for `Cc1ccc(NC(=O)c2ccc(CN3CC[N+](C)([O-])CC3)cc2)cc1Nc1nccc(-c2cccnc2)n1` [Imatinib (piperidine)-4-oxide], the Ki at human OAT1 (read-out: Ki (OAT1)) is > 200 µM; at human OAT3 [2] (read-out: Ki (OAT3)), 64200 nM.
`COc1ccc2c(c1)c(CC(=O)O)c(C)n2C(=O)c1ccc(Cl)cc1` [Indomethacin]: the Ki at human OAT3 [5] stood at 110 nM.
For `CC(=O)c1ccc(CCOc2ccc(CC3SC(=O)NC3=O)cc2)nc1` (stereo not drawn) [Keto pioglitazone], the Ki was 12.5 µM on human OAT1 (read-out: Ki (OAT1)) and 730 nM at human OAT3 [2] (read-out: Ki (OAT3)).
As for `CC(C(=O)O)c1cccc(C(=O)c2ccccc2)c1` (stereo not drawn) [Ketoprofen, reference compound], the values for the Ki on human OAT1 and on human OAT3 [2] were 1.73 µM and 1610 nM, respectively.
For the molecule `CCCCc1nc(Cl)c(C(=O)O)n1Cc1ccc(-c2ccccc2-c2nn[nH]n2)cc1` [Losartan carboxylic acid], the Ki stood at 0.69 µM at human OAT1 and 100 nM at human OAT3 [5]. The “times more potent in inhibiting OAT1 than parent drug” value on human OAT1 (metabolite versus losartan) was 16.5 times. Also, the “times more potent in inhibiting OAT3 than parent drug” value on human OAT3 [2] (metabolite versus losartan) is 3.6 times. In data set [4] (no reference given), the plasma unbound fraction entry was “lower than 1%”.
For the molecule `CCCCc1nc(Cl)c(CO)n1Cc1ccc(-c2ccccc2-c2nn[nH]n2)cc1` [Losartan, reference compound], the inhibition constant Ki on human OAT1 amounted to 11.4 µM; at human OAT3 [5], 360 nM. For the same molecule, the “Unbound Fraction” value in data set [4] (ref Drugbank (https://www.drugbank.ca/drugs/DB00678)) is 1.4%^d.
In the case of `Cc1cnc(NC(=O)C2=C(O)c3ccccc3S(=O)(=O)N2C)s1` [Meloxicam, reference compound], the values for the Ki on human OAT1 and on human OAT3 [5] were 6.88 µM and 540 nM, respectively.
`O=C1NC(=O)C(Cc2ccc(OCCNc3ccccn3)cc2)S1` (stereo not drawn) [N-desmethyl rosiglitazone]: the results for the Ki on human OAT1 (read-out: Ki (OAT1)) and on human OAT3 [2] (read-out: Ki (OAT3)) were 33.3 µM and 1150 nM, respectively.
Consider `Cc1c(CC(=O)O)c2cc(O)ccc2n1C(=O)c1ccc(Cl)cc1` [O-desmethyl indomethacin], for which the results for the Ki at human OAT1 (read-out: Ki (OAT1)) and at human OAT3 [2] (read-out: Ki (OAT3)) were 1.62 µM and 270 nM, respectively.
Consider `CCc1ccc(CCOc2ccc(CC3SC(=O)NC3=O)cc2)nc1` (stereo not drawn) [Pioglitazone, reference compound], for which the Ki at human OAT1 turned out to be 6.3 µM; on human OAT3 [5], 1020 nM.
As for `CN(CCOc1ccc(CC2SC(=O)NC2=O)cc1)c1ccccn1` (stereo not drawn) [Rosiglitazone, reference compound], the inhibition constant Ki stood at 4.2 µM at human OAT1 and 590 nM on human OAT3 [5].
With `CSc1ccc(/C=C2/C(C)=C(CC(=O)O)c3cc(F)ccc32)cc1` [Sulindac sulfide], the figures for the inhibition constant Ki at human OAT1 and at human OAT3 [5] were 3.68 µM and 660 nM, respectively. Moreover, the Cmax in data set [4] (setting [7]) was 22.6 µM. In addition, the “Unbound Fraction” value in data set [4] (setting [7]) is listed as 6.01%; in data set [4] (setting [8]), 4.6%.
Turning to `CC1=C(CC(=O)O)c2cc(F)ccc2/C1=C\c1ccc(S(C)(=O)=O)cc1` [Sulindac sulfone], the Ki came out at 23 µM at human OAT1 (read-out: Ki (OAT1)) and 600 nM on human OAT3 [2] (read-out: Ki (OAT3)). The Cmax in data set [4] (setting [7]) is 4.48 µM. The “Unbound Fraction” value in data set [4] (setting [8]) is reported as 2.1%^b.
On to `CC1=C(CC(=O)O)c2cc(F)ccc2/C1=C\c1ccc([S+](C)[O-])cc1` (stereo not drawn) [Sulindac, reference compound], for which the Ki on human OAT1 worked out at 56.8 µM; at human OAT3 [5] it was 1650 nM. For the same molecule, the “Unbound Fraction” value in data set [4] (setting [7]) is recorded as 6.78%^a.
Consider `Cc1ccc(C(=O)c2ccc(CC(=O)O[C@@H]3O[C@H](C(=O)O)[C@@H](O)[C@H](O)[C@H]3O)n2C)cc1` [Tolmetin β-D-glucuronide], for which the Ki on human OAT1 (read-out: Ki (OAT1)) is 7.17 µM; on human OAT3 [2] (read-out: Ki (OAT3)), 2920 nM.
Regarding `Cc1ccc(C(=O)c2ccc(CC(=O)O)n2C)cc1` [Tolmetin, reference compound], the Ki is 3.01 µM on human OAT1 and 810 nM on human OAT3 [5].
The like results for `O=c1n(CCCN2CCN(c3cccc(Cl)c3)CC2)nc2ccccn12` [Trazodone, reference compound] were, in that order, 19.9 µM and 2940 nM.
For the molecule `CC(=O)CC(c1ccccc1)c1c(O)c2ccccc2oc1=O` (stereo not drawn) [Warfarin, reference compound], the Ki stood at 15.8 µM at human OAT1 and 3110 nM on human OAT3 [2].
For the molecule `CC(C)c1nc(N(C)S(C)(=O)=O)nc(-c2ccc(F)cc2)c1/C=C/[C@@H](O)C[C@@H](O)CC(=O)O` [rosuvastatin], in data set [6], the “renal clearance as share of total plasma clearance” value is 28% and the “share of renal clearance thought to result from OAT3-mediated tubular secretion” value is 90%.
